According to patent US20240353411A1, “HE4 DETECTING PEPTIDE AND USE THEREOF” (Ajou University Industry-Academic Cooperation Foundation, priority 2022, published 2024):
No end group written: not given here.

Columns and labels:
HE4 protein [1] = molecular target: T1, HE4 protein (Homo sapiens, UniProt Q14508); test: Binding affinity Kd, synthesized peptide vs fluorescently labeled protein, Monolith NT.115; settings: HE4 protein labeled RED-NHS, read-out: binding affinity Kd (dissociation constant)
T1 construct: purchased Sinobiological, PA, USA
T1 sequence (Q14508 31-124): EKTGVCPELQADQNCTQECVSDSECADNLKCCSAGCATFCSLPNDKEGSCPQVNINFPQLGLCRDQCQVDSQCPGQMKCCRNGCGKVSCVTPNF
Procedure: (§1) In order to evaluate the binding affinity and specificity of the discovered SEQ ID NO: 1 peptide to the CA125 protein, and the binding affinity and specificity of the SEQ ID NO: 2 peptide to HE4, ELISA assay was performed according to the manufacturer's instructions using CA125 protein (R&D Systems Inc, MN, USA), HE4 protein (Sinobiological, PA, USA), HRP-conjugated M13 antibody (Sinobiological, PA, USA), and TMB solution (Thermo Scientific, MA, USA). In addition, to measure the binding affinity Kd (dissociation constant), the discovered peptides of SEQ ID NO: 1 and SEQ ID NO: 2 were synthesized (Biostem, Suwon, Korea), CA125 protein and HE4 protein were each fluorescently labeled using Protein Labeling kit RED-NHS 2nd Generation (NanoTemper Technologies, Munich, Germany). Afterwards, the binding affinity between peptide and protein was measured using Monolith NT.115 (NanoTemper Technologies, Munich, Germany) according to the manufacturer's instructions.

HE4 protein [2] = molecular target: T1, HE4 protein; test: ELISA assay of binding and specificity to HE4 protein; settings: HRP-conjugated M13 antibody, TMB, FIG. 1
Procedure: as §1

CA125 protein [3] = molecular target: T2, CA125 protein (Homo sapiens, UniProt Q8WXI7); test: Binding affinity Kd, synthesized peptide vs fluorescently labeled protein, Monolith NT.115; settings: CA125 protein labeled RED-NHS, read-out: binding affinity Kd (dissociation constant)
T2 construct: purchased R&D Systems Inc, MN, USA
T2 sequence (Q8WXI7 12660-12923 limits assumed): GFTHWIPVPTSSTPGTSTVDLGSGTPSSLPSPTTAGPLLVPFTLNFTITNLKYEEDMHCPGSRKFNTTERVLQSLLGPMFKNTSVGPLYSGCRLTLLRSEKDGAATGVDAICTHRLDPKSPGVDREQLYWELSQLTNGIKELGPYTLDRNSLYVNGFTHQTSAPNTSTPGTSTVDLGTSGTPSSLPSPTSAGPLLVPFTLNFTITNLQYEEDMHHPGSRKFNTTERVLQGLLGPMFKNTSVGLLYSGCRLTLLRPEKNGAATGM
Procedure: as §1

CA125 protein [4] = molecular target: T2, CA125 protein; test: ELISA assay of binding and specificity to CA125 protein; settings: HRP-conjugated M13 antibody, TMB, FIG. 1
Procedure: as §1

Kd (HE4 protein [1]) [µM]	specific binding to the HE4 protein (HE4 protein [2])	Kd (CA125 protein [3]) [µM]	specific binding to the CA125 protein (CA125 protein [4])	Substance
15.3 ± 12	specifically bound	–	–	LGSKPIN [SEQ ID NO: 2, LGSKPIN]
–	–	0.0114 ± 0.00423	specifically bound	HTHGAARVPDHR [SEQ ID NO: 1, HTHGAARVPDHR]
